Results reported in ChEMBL document CHEMBL1122594, “Parasite enzymes as potential targets for antiparasitic chemotherapy” (J Med Chem, 1984).
Calls of active or inactive are those of the source. The rule behind the calls is not given here.

Assays:
[1] = species on record: Gallus gallus; assay: Anticoccidial activity against toxoplasmosis in chicken; no activity; assay type: functional, organism-based
[2] = Anticoccidial activity against toxoplasmosis in cattle; no activity; assay type: functional
[3] = (§1) Enzymatic activity was determined
[4] = as §1; remark: listed apart in the source

Row | SMILES | Ki [4] [µM] | further results
1 | CCCc1ncc(C[n+]2ccccc2C)c(N)n1 | – | Activity [1]: inactive; Activity [2]: inactive
2 | Nc1ccc(C(=O)O)cc1 | – | Km [3]: 1.5 µM
3 | N=C(N)NS(=O)(=O)c1ccc(N)cc1 [SULFAGUANIDINE] | 69 | –
4 | Nc1ccc(S(N)(=O)=O)cc1 [SULFANILAMIDE] | 130 | –
5 | Nc1ccc(S(=O)(=O)Nc2nccs2)cc1 [SULFATHIAZOLE] | 14 | –
